According to patent US20160311791A1, “NOVEL TRICYCLIC CALCIUM SENSING RECEPTOR ANTOGONISTS FOR THE TREATMENT OF OSTEOPOSOSIS” (MERCK SHARP & DOHME CORP., priority 2013, published 2016):

Columns and labels:
calcium sensing receptor = biological target: T1, calcium sensing receptor (Homo sapiens, UniProt P41180); test: Calcium sensing receptor antagonist activity (test not specified)
T1 sequence (P41180 20-1078): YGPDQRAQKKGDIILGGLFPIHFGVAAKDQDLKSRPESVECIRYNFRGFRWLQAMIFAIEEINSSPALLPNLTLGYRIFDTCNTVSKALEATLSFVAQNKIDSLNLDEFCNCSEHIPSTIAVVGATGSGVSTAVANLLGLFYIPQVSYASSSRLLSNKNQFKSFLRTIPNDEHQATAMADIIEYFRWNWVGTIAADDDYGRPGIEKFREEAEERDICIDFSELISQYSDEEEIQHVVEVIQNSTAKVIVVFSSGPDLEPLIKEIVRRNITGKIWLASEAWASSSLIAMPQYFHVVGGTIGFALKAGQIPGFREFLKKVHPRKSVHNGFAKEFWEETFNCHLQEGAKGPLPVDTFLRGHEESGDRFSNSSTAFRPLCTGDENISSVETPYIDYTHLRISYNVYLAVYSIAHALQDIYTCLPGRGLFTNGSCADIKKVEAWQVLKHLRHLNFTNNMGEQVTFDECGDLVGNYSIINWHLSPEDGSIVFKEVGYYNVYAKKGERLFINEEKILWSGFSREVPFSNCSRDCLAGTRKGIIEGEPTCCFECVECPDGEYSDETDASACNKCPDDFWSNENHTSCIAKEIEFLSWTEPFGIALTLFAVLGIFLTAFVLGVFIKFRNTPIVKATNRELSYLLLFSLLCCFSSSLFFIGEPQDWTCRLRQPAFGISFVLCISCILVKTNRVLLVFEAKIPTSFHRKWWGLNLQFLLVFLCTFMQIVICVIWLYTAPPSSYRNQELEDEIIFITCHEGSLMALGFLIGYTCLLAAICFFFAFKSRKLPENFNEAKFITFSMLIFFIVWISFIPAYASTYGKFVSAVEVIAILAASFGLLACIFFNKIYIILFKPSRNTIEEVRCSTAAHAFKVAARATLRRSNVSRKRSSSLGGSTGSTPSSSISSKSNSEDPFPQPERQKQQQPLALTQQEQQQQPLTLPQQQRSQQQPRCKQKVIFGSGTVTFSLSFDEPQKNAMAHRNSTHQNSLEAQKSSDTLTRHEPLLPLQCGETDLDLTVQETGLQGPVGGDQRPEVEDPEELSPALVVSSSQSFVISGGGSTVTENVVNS

human CaSR = biological target: T2, human CaSR (Homo sapiens, UniProt P41180); test: CaSR binding assay (radioligand, HEK293 membranes); parameters: expressed in transfected cells; host or cells: HEK293 cell membranes; conditions: radio-labeled compound used as ligand; read-out: apparent Kd
T2 sequence (P41180 20-1078): T1 sequence (P41180 20-1078)
Protocol: Procedures for CaSR Binding Assay
Membrane preparations from HEK293 cells expressing the human CaSR were generated. The cells were cultured and then washed twice with 1×PBS. The cells were dissociated by adding 4 ml pre-warmed 0.25% Trypsin-EDTA, and by incubating the flask at RT for 3 minutes. 10 ml media was dispensed over the cell layer surface, and the cells were harvested into a centrifuge tube. The cells were centrifuged at 200×g for 10 minutes. The cell pellet was suspended in 30 ml of membrane preparation buffer and then homogenized on ice twice at 16000 rpm for 10 seconds. Following homogenization, the membrane was collected by centrifuge at 40000×g for 30 minutes at 4° C., washed twice with 30 ml membrane preparation buffer, and centrifuged again at 40000×g for 10 minutes. The membrane pellet was suspended in 30 ml membrane preparation buffer (50 mM Tris, pH7.0, 10 mM MgCl, Proteinase inhibitor (Roche, REF 04693116001), and then homogenized on ice once at 16000 rpm for 10 seconds. The total protein concentration was measured using a BCA kit. The membrane protein concentration was adjusted to 2.4 mg/ml and then diluted with binding buffer (10 mM HEPES, pH7.4, 130 mM NaCl, 0.4 mM CaCl2, 5 mM MgCl2, 1 mM EGTA, 10 mM glucose, 0.1% BSA) to 0.33 μg/μl. The final amount in the binding assay was 20 μg/well. Test compound was serially diluted manually by using BIOHIT multi-channel pipettor in 100% DMSO (10 point, 3-fold dilution of each compound from 5.0 μM in 100% DMSO). 4 μl of serially diluted compound was manually transferred into a second assay microplate that contained 196 μl of binding assay buffer to create the intermediate dilution plate. For background, 20 μl of assay buffer was added to each control well. […] The binding reaction used a 100 μl reaction volume consisting of 10 μl of test compound, 30 μl of diluted radio-labelled compound, and 60 μl of membrane solution (0.33 μg/μl). The reaction mixture was incubated at room temperature for one hour. The Grade GF/C filter plates were presoaked in 0.3% PEI (protect from light) for 60 minutes at room temperature. The plate was then washed three times with ice-cold wash buffer (25 mM Tris-HCl, PH7.4, 130 mM NaCl, 5 mM MgCl2, 0.4 mM CaCl2, 0.1% BSA) prior to filtration of the binding samples. The binding reaction was terminated by rapid filtration of 100 μl binding mixture through the GF/C plate. Plates were then washed 6 times with ice-cold wash buffer. Filter plates were dried with a hair dryer for 20 minutes. 60 μl/well MICROSCINT 20 (a cocktail for microplates) was added to the bottom of sealed filters, then the filters were sealed at the top with tape. Bound radioactivity was counted in a TOPCOUNT scintillation counter. Exemplary compounds bind in the 1-500 nM range.

Kd (human CaSR): 400 nM
SMILES: CC(C)(CC1Cc2ccccc2C1)NC[C@@H](O)COc1cc(-c2ccc(C(=O)O)cc2)ccc1F [Example 25, (R)-3′-(3-((1-(2,3-dihydro-1H-inden-2-yl)-2-methylpropan-2-yl)amino)-2-hydroxypropoxy)-4′-fluoro-[1,1′-biphenyl]-4-carboxylic acid]
calcium sensing receptor antagonist activity (calcium sensing receptor): shows calcium sensing receptor antagonist activity
